The values that follow come from US6552000B2, “Anticonvulsant derivatives useful in treating autism” (Ortho-McNeil Pharmaceutical, Inc., priority 1999, dated 2003).

One test has as its system seizures. The following applies: several rodent models of epilepsy; cited from earlier work.
The test system of test [1] is simple and complex partial seizures and secondarily generalized seizures. As to conditions: clinical trials of human epilepsy; adjunctive therapy or monotherapy; cited from earlier work.
Another test deals with kindled epilepsy. As to conditions: animal model of kindled epilepsy; cited from earlier work.
The subject of another test is partial onset seizures. The experiment in a line: placebo controlled, add on trials in partial onset seizures. As to conditions: adults and children with partial onset seizures. Format: in vivo. An excerpt:
There is also known enhancement of GABA activity in the brain along with reduced glutamate receptor activity. Accordingly, compounds of formula I are useful in the treatment of autism.

For `CC1(C)O[C@@H]2[C@@H](CO[C@@]3(COS(N)(=O)=O)OC(C)(C)O[C@@H]23)O1` [topiramate, 2,3:4,5-bis-O-(1-methylethylidene)-β-D-fructopyranose sulfamate], the block of seizures entry in the test with seizures and with kindled epilepsy was “effectively block seizures” throughout. Further, the “efficacy in treating simple and complex partial seizures and secondarily generalized seizures” value in test [1] was “effective”. Moreover, the “reduction of seizure rate versus placebo” value in the test with partial onset seizures is on record as “statistically significant reduction of seizure rate”.
